Compound in one test: O=[As]([O-])(O)O.[K+] [potassium arsenate]
Put plainly: thermal stability z-score vs DMSO; higher = more thermally stabilized by treatment. The conditions noted are these: HeLa; arsenate concentration 1 mM. On the procedure:
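Cellular thermal proteome profiling in HeLa cells treated with 1 mM arsenate for 1 h (DMSO pretreatment), heated to ten temperatures (37-66.3 °C). Soluble protein was quantified by TMT mass spectrometry relative to DMSO controls; the thermal stability score was transformed to a z-score; mean of n = 3 experiments.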

Compound in the next test: NC(=O)CCCCC1CCSS1 [lipoamide]
The description is as above. Conditions: HeLa, lipoamide concentration 100 µM. On the procedure:
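Cellular thermal proteome profiling in HeLa cells. Cells were treated with 100 µM lipoamide for 1 h, with or without 1 mM arsenate for a further 1 h, then heated to ten temperatures (37-66.3 °C), and soluble protein was quantified by TMT mass spectrometry relative to 0.1% DMSO controls. The thermal stability score (sum of log2 fold changes minus the abundance score) was transformed to a z-score; mean of n = 3 experiments.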

Setting [1] is: arsenate co-treatment: 1 mM arsenate 1 h.
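Note: each temperature applied for 3 min, abundance score taken as mean log2 fold change at the two lowest temperatures, z-score obtained by mean subtraction and division by SD.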

Sequence of UniProt Q9NS87 (Q9NS87 whole entry): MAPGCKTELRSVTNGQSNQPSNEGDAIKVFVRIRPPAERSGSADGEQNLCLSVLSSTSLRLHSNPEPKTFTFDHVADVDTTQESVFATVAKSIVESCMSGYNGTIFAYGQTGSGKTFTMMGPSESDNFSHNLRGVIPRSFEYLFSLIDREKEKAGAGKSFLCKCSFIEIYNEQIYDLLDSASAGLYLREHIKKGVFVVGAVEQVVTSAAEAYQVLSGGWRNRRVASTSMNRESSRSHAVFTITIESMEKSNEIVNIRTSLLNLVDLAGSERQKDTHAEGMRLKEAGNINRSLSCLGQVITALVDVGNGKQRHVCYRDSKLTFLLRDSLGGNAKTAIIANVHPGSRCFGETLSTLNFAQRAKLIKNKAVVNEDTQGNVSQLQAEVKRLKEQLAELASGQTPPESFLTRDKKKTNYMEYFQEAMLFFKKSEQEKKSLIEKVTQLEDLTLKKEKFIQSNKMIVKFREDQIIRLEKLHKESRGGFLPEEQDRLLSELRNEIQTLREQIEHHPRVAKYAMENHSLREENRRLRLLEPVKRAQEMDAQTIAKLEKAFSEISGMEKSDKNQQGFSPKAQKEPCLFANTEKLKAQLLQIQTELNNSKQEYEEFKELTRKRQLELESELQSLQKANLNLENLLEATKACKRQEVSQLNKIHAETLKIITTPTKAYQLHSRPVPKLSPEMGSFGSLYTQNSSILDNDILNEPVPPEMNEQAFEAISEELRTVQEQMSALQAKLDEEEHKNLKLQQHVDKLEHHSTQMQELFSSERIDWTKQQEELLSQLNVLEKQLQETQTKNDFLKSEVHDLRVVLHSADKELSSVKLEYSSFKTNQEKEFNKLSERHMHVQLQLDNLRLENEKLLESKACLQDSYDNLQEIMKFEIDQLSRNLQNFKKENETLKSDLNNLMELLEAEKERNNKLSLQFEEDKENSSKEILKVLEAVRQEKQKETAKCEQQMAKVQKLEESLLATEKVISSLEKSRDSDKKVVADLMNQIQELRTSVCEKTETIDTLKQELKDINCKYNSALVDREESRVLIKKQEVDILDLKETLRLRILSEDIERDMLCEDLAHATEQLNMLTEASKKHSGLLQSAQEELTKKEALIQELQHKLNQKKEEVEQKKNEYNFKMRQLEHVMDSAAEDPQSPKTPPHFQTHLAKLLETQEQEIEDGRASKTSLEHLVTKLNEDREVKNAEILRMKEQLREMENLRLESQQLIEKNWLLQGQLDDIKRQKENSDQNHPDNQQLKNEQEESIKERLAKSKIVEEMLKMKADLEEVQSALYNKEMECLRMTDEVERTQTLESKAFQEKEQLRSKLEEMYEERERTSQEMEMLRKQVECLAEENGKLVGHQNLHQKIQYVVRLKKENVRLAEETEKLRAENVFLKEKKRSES
Sequence of UniProt Q9GZZ9 (Q9GZZ9 whole entry): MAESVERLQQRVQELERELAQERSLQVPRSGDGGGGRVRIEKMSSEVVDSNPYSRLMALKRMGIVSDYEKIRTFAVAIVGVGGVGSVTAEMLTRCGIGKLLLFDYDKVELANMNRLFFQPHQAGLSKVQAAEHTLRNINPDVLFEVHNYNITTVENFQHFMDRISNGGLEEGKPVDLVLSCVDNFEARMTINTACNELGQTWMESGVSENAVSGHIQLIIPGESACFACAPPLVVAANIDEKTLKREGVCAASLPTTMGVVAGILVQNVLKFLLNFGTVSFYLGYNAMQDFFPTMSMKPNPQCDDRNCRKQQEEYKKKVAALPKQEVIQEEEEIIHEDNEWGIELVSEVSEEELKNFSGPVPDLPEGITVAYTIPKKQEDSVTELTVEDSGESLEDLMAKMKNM
Sequence of UniProt Q9NYA1 (Q9NYA1 whole entry): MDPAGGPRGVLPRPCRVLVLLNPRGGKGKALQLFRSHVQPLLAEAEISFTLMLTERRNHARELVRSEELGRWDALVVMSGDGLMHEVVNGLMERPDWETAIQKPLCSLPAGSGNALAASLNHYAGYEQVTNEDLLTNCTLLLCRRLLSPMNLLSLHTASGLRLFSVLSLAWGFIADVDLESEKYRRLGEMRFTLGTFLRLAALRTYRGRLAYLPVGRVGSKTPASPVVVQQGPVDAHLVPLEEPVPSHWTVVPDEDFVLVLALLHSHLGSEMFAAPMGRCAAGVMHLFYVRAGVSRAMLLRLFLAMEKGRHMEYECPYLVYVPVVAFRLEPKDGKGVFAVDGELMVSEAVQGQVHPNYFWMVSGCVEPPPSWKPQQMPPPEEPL
Sequence of UniProt Q9Y5K8 (Q9Y5K8 whole entry): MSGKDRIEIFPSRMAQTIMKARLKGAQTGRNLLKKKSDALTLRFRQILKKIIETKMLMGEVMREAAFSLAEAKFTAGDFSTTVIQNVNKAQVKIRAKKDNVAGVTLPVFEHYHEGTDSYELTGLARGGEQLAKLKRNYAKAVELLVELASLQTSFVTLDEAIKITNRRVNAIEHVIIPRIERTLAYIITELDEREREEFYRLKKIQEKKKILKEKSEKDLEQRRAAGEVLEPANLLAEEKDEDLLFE
Sequence of UniProt P30405 (P30405 whole entry): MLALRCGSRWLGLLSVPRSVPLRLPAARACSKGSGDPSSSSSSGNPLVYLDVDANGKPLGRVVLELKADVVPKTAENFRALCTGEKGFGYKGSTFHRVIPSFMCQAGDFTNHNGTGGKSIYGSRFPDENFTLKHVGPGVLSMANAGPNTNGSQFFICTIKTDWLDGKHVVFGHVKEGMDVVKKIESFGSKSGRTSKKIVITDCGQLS
Sequence of UniProt Q9Y6K9 (Q9Y6K9 whole entry): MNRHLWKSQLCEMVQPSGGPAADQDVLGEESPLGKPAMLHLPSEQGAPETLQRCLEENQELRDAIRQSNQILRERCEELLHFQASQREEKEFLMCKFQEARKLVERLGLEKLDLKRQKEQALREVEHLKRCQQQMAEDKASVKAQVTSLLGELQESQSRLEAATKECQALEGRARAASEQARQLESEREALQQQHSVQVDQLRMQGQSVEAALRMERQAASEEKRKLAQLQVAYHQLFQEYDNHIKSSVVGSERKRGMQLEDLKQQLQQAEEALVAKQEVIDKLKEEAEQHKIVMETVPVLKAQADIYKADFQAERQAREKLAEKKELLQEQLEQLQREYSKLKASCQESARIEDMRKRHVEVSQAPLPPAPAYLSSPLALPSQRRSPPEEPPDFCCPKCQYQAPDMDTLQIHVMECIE
Sequence of UniProt O75414 (O75414 whole entry): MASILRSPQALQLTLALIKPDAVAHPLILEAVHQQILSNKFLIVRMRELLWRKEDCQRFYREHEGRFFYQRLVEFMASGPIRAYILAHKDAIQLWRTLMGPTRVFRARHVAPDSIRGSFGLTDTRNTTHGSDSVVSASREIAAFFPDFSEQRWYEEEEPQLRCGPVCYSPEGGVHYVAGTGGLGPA
Sequence of UniProt P68366 (P68366 whole entry): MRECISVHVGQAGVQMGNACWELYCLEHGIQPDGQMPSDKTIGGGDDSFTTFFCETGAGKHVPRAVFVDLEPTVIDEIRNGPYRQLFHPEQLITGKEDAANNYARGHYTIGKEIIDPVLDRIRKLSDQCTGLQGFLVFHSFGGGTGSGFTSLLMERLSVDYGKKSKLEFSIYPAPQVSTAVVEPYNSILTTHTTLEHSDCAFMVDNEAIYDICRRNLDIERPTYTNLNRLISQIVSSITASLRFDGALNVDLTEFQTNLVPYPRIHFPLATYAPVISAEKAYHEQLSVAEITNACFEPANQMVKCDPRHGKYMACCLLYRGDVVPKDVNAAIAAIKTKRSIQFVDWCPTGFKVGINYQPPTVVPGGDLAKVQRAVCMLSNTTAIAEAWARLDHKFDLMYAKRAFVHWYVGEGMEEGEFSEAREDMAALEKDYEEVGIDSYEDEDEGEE
Sequence of UniProt Q8IY37 (Q8IY37 whole entry): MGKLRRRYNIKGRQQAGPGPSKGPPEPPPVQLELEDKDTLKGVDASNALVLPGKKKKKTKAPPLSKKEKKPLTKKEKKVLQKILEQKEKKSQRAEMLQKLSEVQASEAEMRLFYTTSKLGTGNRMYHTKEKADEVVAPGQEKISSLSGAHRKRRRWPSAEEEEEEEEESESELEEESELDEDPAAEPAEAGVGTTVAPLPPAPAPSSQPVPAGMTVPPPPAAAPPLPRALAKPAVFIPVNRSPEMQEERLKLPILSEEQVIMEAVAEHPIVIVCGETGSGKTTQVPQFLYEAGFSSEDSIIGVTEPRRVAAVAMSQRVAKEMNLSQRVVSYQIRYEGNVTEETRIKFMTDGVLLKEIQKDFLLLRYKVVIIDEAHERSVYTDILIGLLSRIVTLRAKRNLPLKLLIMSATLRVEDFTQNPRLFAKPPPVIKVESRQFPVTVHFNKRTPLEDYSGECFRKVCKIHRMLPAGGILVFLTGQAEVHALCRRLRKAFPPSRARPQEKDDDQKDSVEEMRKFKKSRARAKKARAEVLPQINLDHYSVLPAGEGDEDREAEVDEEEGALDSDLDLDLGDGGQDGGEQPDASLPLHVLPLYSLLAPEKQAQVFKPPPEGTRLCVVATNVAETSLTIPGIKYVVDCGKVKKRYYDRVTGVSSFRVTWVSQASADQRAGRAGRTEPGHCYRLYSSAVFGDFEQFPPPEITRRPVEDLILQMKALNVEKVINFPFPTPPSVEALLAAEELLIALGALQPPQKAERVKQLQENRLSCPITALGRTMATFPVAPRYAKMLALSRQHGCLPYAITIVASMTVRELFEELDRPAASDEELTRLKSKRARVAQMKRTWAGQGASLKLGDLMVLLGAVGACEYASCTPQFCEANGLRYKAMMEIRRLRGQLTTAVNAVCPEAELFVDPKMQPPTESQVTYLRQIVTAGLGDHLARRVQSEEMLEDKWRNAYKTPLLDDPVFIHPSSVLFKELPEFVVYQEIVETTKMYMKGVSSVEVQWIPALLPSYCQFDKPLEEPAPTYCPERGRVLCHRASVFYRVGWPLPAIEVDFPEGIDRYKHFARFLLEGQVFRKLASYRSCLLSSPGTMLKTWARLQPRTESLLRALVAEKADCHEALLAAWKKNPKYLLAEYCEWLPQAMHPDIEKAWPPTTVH
Sequence of UniProt P62316 (P62316 whole entry): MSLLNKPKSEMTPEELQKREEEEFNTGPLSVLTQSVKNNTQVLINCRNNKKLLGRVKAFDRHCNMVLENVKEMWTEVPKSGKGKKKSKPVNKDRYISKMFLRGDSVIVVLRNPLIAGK

As to SREBF1 (UniProt P36956), the results for the thermal stability z-score in the test with potassium arsenate, with lipoamide (setting [1]) and with lipoamide (arsenate co-treatment: none) were 0.119, -0.33 and 0.0707, respectively.

Turning to CLTCL1 (UniProt P53675), the thermal stability z-score in the test with potassium arsenate amounted to 0.858; with lipoamide (setting [1]), 0.147; with lipoamide (arsenate co-treatment: none), 0.15.

AJUBA (UniProt Q96IF1): the thermal stability z-score is -0.562 in the test with potassium arsenate, -0.32 with lipoamide (setting [1]) and -0.207 in the test with lipoamide (arsenate co-treatment: none).

SNRPD2 (UniProt P62316): the thermal stability z-score was 1.15 with potassium arsenate, 1.08 in the test with lipoamide (setting [1]) and 0.689 with lipoamide (arsenate co-treatment: none).

As to NME6 (UniProt O75414), the thermal stability z-score in the test with potassium arsenate was 0.083; in the test with lipoamide (setting [1]) it was 0.102; in the test with lipoamide (arsenate co-treatment: none) it was 0.493.

On to MED25 (UniProt Q71SY5), for which the thermal stability z-score is 0.0488 in the test with potassium arsenate, -0.264 in the test with lipoamide (setting [1]) and -0.252 in the test with lipoamide (arsenate co-treatment: none).

With KIF15 (UniProt Q9NS87), the thermal stability z-score with potassium arsenate is 0.921; with lipoamide (setting [1]) it was -0.328; with lipoamide (arsenate co-treatment: none) it was -0.386.

UBA5 (UniProt Q9GZZ9): the thermal stability z-score with potassium arsenate is 0.622; with lipoamide (setting [1]), -0.815; in the test with lipoamide (arsenate co-treatment: none) it was -0.52.

SLMAP (UniProt Q14BN4): the thermal stability z-score with potassium arsenate was 1.45; with lipoamide (setting [1]) it was -0.467; with lipoamide (arsenate co-treatment: none), -0.173.

On to B3GLCT (UniProt Q6Y288), for which the results for the thermal stability z-score with potassium arsenate, with lipoamide (setting [1]) and in the test with lipoamide (arsenate co-treatment: none) were 0.968, -0.669 and -1.54, respectively.

TSPAN4 (UniProt O14817): the results for the thermal stability z-score with potassium arsenate, with lipoamide (setting [1]) and with lipoamide (arsenate co-treatment: none) were 0.304, -0.0469 and 0.15, respectively.

BTBD1 (UniProt Q9H0C5): the values for the thermal stability z-score with potassium arsenate, in the test with lipoamide (setting [1]) and with lipoamide (arsenate co-treatment: none) were 0.0567, -0.0349 and 0.00713, respectively.

With TUBA4A (UniProt P68366), the thermal stability z-score in the test with potassium arsenate is -0.681; in the test with lipoamide (setting [1]) it was -0.0177; in the test with lipoamide (arsenate co-treatment: none), -0.502.

As for RPAP2 (UniProt Q8IXW5), the thermal stability z-score was -0.0605 with potassium arsenate, -0.0831 with lipoamide (setting [1]) and -0.0884 with lipoamide (arsenate co-treatment: none).

Consider SPHK1 (UniProt Q9NYA1), for which the thermal stability z-score with potassium arsenate was -0.0222; with lipoamide (setting [1]), 0.328; with lipoamide (arsenate co-treatment: none) it was 0.0728.

ATP6V1D (UniProt Q9Y5K8): the thermal stability z-score is -0.425 with potassium arsenate, 0.546 with lipoamide (setting [1]) and 0.0685 with lipoamide (arsenate co-treatment: none).

PLD3 (UniProt Q8IV08): the figures for the thermal stability z-score with potassium arsenate, with lipoamide (setting [1]) and in the test with lipoamide (arsenate co-treatment: none) were 0.817, 0.32 and 0.424, respectively.

Consider PGRMC1 (UniProt O00264), for which the thermal stability z-score with potassium arsenate was 0.982; with lipoamide (setting [1]), 0.421; in the test with lipoamide (arsenate co-treatment: none) it was 0.452.

As to IKBKG (UniProt Q9Y6K9), the thermal stability z-score with potassium arsenate is -0.992; with lipoamide (setting [1]) it was -0.275; with lipoamide (arsenate co-treatment: none), -0.162.

Consider NOP16 (UniProt Q9Y3C1), for which the results for the thermal stability z-score in the test with potassium arsenate, with lipoamide (setting [1]) and with lipoamide (arsenate co-treatment: none) were -1.68, -0.153 and -0.677, respectively.

Turning to DHX37 (UniProt Q8IY37), the thermal stability z-score with potassium arsenate was determined as 0.359; in the test with lipoamide (setting [1]) it was 0.321; with lipoamide (arsenate co-treatment: none), 0.303.

Regarding DPF2 (UniProt Q92785), the thermal stability z-score with potassium arsenate is -5.05; with lipoamide (setting [1]), 2.86; in the test with lipoamide (arsenate co-treatment: none) it was 2.98.

Consider PPIF (UniProt P30405), for which the thermal stability z-score in the test with potassium arsenate was 0.0382; in the test with lipoamide (setting [1]) it was 0.26; in the test with lipoamide (arsenate co-treatment: none), 0.29.

The values above are taken from the supplement of paper PMC12463676, “Small-molecule dissolution of stress granules by redox modulation benefits ALS models” (Nature Chemical Biology, 2025).
